Key:
Type in all cases: in vivo
[1] = test system: crabgrass, large (large crabgrass, Digitaria sanguinalis); assay: Test A pre-/postemergence: crabgrass, large; settings: for Crabgrass, Large plant response rating: Postemergence; for Plant response rating, Crabgrass, Large: Preemergence
Summary of the method: (§1)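 Whole-plant greenhouse assay in loam/sand. Preemergence directed soil spray plus simultaneous postemergence spray (one- to two-leaf stage, 2–10 cm). Rated visually ~10 days later, 0 = no effect, 100 = complete control.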

[2] = test system: wheat (Triticum aestivum); assay: Test A pre-/postemergence: wheat; settings: for Wheat plant response rating: Postemergence; for Plant response rating, Wheat: Preemergence
Summary of the method: as §1

[3] = test system: velvetleaf (Abutilon theophrasti); assay: Test A pre-/postemergence: velvetleaf; settings: for Velvetleaf plant response rating: Postemergence; for Plant response rating, Velvetleaf: Preemergence
Summary of the method: as §1

[4] = test system: morningglory (Ipomoea spp.); assay: Test A pre-/postemergence: morningglory; settings: for Morningglory plant response rating: Postemergence; for Plant response rating, Morningglory: Preemergence
Summary of the method: as §1

[5] = test system: barnyardgrass (Echinochloa crus-galli); assay: Test A pre-/postemergence: barnyardgrass; settings: for Barnyardgrass plant response rating: Postemergence; for Plant response rating, Barnyardgrass: Preemergence
Summary of the method: as §1

[6] = test system: barnyardgrass (Echinochloa crus-galli); assay: Test C flooded paddy test: barnyardgrass; settings: scale 0 to 100 (0 no effect, 100 complete control)
Summary of the method: (§2)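 Visual ratings from 0 (no effect) to 100 (complete control), made against untreated controls 13 to 15 days after treatment, express plant response. Compounds went directly into paddy water over 2-leaf stage plants in pots flooded to 3 cm.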

[7] = test system: rice (Oryza sativa); assay: Test C flooded paddy test: rice; settings: scale 0 to 100 (0 no effect, 100 complete control)
Summary of the method: as §2

[8] = test system: foxtail, giant (giant foxtail, Setaria faberii); assay: Test A pre-/postemergence: foxtail, giant; settings: for Foxtail, Giant plant response rating: Postemergence; for Plant response rating, Foxtail, Giant: Preemergence
Summary of the method: as §1

[9] = test system: ducksalad (Heteranthera limosa); assay: Test C flooded paddy test: ducksalad; settings: scale 0 to 100 (0 no effect, 100 complete control)
Summary of the method: as §2

[10] = test system: sedge, umbrella (small-flower umbrella sedge, Cyperus difformis); assay: Test C flooded paddy test: sedge, umbrella; settings: scale 0 to 100 (0 no effect, 100 complete control)
Summary of the method: as §2

[11] = test system: corn (Zea mays); assay: Test A pre-/postemergence: corn; settings: for Corn plant response rating: Postemergence; for Plant response rating, Corn: Preemergence
Summary of the method: as §1

[12] = test system: pigweed (Amaranthus retroflexus); assay: Test A pre-/postemergence: pigweed; settings: for Pigweed plant response rating: Postemergence; for Plant response rating, Pigweed: Preemergence
Summary of the method: as §1

[13] = 125 g ai/ha, 0 to 100 scale, 0 is no effect, 100 is complete control
[14] = 500 g ai/ha, visual rating on 0 to 100 scale (0 no effect, 100 complete control), approximately ten days
[15] = 125 g ai/ha, 0 to 100 scale (0 no effect, 100 complete control)
[16] = 500 g ai/ha, 0 to 100 scale, 0 is no effect, 100 is complete control
[17] = Flood (flooded paddy test), 62 g ai/ha, visual rating after 13 to 15 days
[18] = Flood (flooded paddy test), 125 g ai/ha, visual rating after 13 to 15 days
[19] = Flood (flooded paddy test), 250 g ai/ha, visual rating after 13 to 15 days

SMILES: Cc1nn(-c2ccc(F)cc2)nc1Cn1cc(C(F)(F)F)nc1Cl [Compound 35]
- Crabgrass, Large plant response rating [1, 13]: 80
- Crabgrass, Large plant response rating [1, 14]: 90
- Plant response rating, Crabgrass, Large [1, 15]: 90
- Plant response rating, Crabgrass, Large [1, 16]: 100
- Wheat plant response rating [2, 13]: 10
- Wheat plant response rating [2, 14]: 60
- Plant response rating, Wheat [2, 15]: 0
- Plant response rating, Wheat [2, 16]: 0
- Velvetleaf plant response rating [3, 13]: 70
- Velvetleaf plant response rating [3, 14]: 100
- Plant response rating, Velvetleaf [3, 15]: 30
- Plant response rating, Velvetleaf [3, 16]: 50
- Morningglory plant response rating [4, 13]: 90
- Morningglory plant response rating [4, 14]: 100
- Plant response rating, Morningglory [4, 15]: 20
- Plant response rating, Morningglory [4, 16]: 50
- Barnyardgrass plant response rating [5, 13]: 40
- Barnyardgrass plant response rating [5, 14]: 90
- Plant response rating, Barnyardgrass [5, 15]: 60
- Plant response rating, Barnyardgrass [5, 16]: 90
- Plant response rating, Barnyardgrass [6, 17]: 0
- Plant response rating, Barnyardgrass [6, 18]: 0
- Plant response rating, Barnyardgrass [6, 19]: 30
- Plant response rating, Barnyardgrass ([6]; Flood, 31 g ai/ha): 0
- Plant response rating, Rice [7, 17]: 0
- Plant response rating, Rice [7, 18]: 0
- Plant response rating, Rice [7, 19]: 0
- Plant response rating, Rice ([7]; Flood, 31 g ai/ha): 0
- Foxtail, Giant plant response rating [8, 13]: 60
- Foxtail, Giant plant response rating [8, 14]: 90
- Plant response rating, Foxtail, Giant [8, 15]: 80
- Plant response rating, Foxtail, Giant [8, 16]: 100
- Plant response rating, Ducksalad [9, 17]: 65
- Plant response rating, Ducksalad [9, 18]: 70
- Plant response rating, Ducksalad [9, 19]: 75
- Plant response rating, Ducksalad ([9]; Flood, 31 g ai/ha): 40
- Plant response rating, Sedge, Umbrella [10, 17]: 75
- Plant response rating, Sedge, Umbrella [10, 18]: 80
- Plant response rating, Sedge, Umbrella [10, 19]: 80
- Plant response rating, Sedge, Umbrella ([10]; Flood, 31 g ai/ha): 75
- Corn plant response rating [11, 13]: 20
- Corn plant response rating [11, 14]: 50
- Plant response rating, Corn [11, 15]: 10
- Plant response rating, Corn [11, 16]: 30
- Pigweed plant response rating [12, 13]: 100
- Pigweed plant response rating [12, 14]: 100
- Plant response rating, Pigweed [12, 15]: 90
- Plant response rating, Pigweed [12, 16]: 100

SMILES: Cc1nn(-c2ccc(C(F)(F)F)cc2)nc1Oc1cncc(C(F)(F)F)c1 [Compound 37]
- Crabgrass, Large plant response rating [1, 13]: 20
- Crabgrass, Large plant response rating [1, 14]: 70
- Plant response rating, Crabgrass, Large [1, 15]: 90
- Plant response rating, Crabgrass, Large [1, 16]: 100
- Wheat plant response rating [2, 13]: 0
- Wheat plant response rating [2, 14]: 10
- Plant response rating, Wheat [2, 15]: 0
- Plant response rating, Wheat [2, 16]: 0
- Velvetleaf plant response rating [3, 13]: 20
- Velvetleaf plant response rating [3, 14]: 50
- Plant response rating, Velvetleaf [3, 15]: 0
- Plant response rating, Velvetleaf [3, 16]: 10
- Morningglory plant response rating [4, 13]: 20
- Morningglory plant response rating [4, 14]: 90
- Plant response rating, Morningglory [4, 15]: 0
- Plant response rating, Morningglory [4, 16]: 20
- Barnyardgrass plant response rating [5, 13]: 10
- Barnyardgrass plant response rating [5, 14]: 20
- Plant response rating, Barnyardgrass [5, 15]: 30
- Plant response rating, Barnyardgrass [5, 16]: 90
- Plant response rating, Barnyardgrass [6, 17]: 10
- Plant response rating, Barnyardgrass [6, 19]: 35
- Plant response rating, Rice [7, 17]: 10
- Plant response rating, Rice [7, 19]: 20
- Foxtail, Giant plant response rating [8, 13]: 30
- Foxtail, Giant plant response rating [8, 14]: 80
- Plant response rating, Foxtail, Giant [8, 15]: 90
- Plant response rating, Foxtail, Giant [8, 16]: 100
- Plant response rating, Ducksalad [9, 17]: 0
- Plant response rating, Ducksalad [9, 19]: 70
- Plant response rating, Sedge, Umbrella [10, 17]: 0
- Plant response rating, Sedge, Umbrella [10, 19]: 0
- Corn plant response rating [11, 13]: 10
- Corn plant response rating [11, 14]: 20
- Plant response rating, Corn [11, 15]: 0
- Pigweed plant response rating [12, 13]: 80
- Pigweed plant response rating [12, 14]: 100
- Plant response rating, Pigweed [12, 15]: 70
- Plant response rating, Pigweed [12, 16]: 100

SMILES: Cc1nn(-c2ccc(C(F)(F)F)cc2)nc1Oc1ccnc(OC(F)F)c1 [Compound 48]
- Crabgrass, Large plant response rating [1, 13]: 50
- Crabgrass, Large plant response rating [1, 14]: 90
- Plant response rating, Crabgrass, Large [1, 15]: 30
- Plant response rating, Crabgrass, Large [1, 16]: 100
- Wheat plant response rating [2, 13]: 10
- Wheat plant response rating [2, 14]: 20
- Plant response rating, Wheat [2, 15]: 0
- Plant response rating, Wheat [2, 16]: 0
- Velvetleaf plant response rating [3, 13]: 30
- Velvetleaf plant response rating [3, 14]: 50
- Plant response rating, Velvetleaf [3, 15]: 0
- Plant response rating, Velvetleaf [3, 16]: 0
- Morningglory plant response rating [4, 13]: 10
- Morningglory plant response rating [4, 14]: 90
- Plant response rating, Morningglory [4, 15]: 0
- Plant response rating, Morningglory [4, 16]: 20
- Barnyardgrass plant response rating [5, 13]: 10
- Barnyardgrass plant response rating [5, 14]: 30
- Plant response rating, Barnyardgrass [5, 15]: 0
- Plant response rating, Barnyardgrass [5, 16]: 30
- Plant response rating, Barnyardgrass [6, 17]: 10
- Plant response rating, Barnyardgrass [6, 19]: 30
- Plant response rating, Rice [7, 17]: 10
- Plant response rating, Rice [7, 19]: 20
- Foxtail, Giant plant response rating [8, 13]: 30
- Foxtail, Giant plant response rating [8, 14]: 70
- Plant response rating, Foxtail, Giant [8, 15]: 40
- Plant response rating, Foxtail, Giant [8, 16]: 100
- Plant response rating, Ducksalad [9, 17]: 20
- Plant response rating, Ducksalad [9, 19]: 65
- Plant response rating, Sedge, Umbrella [10, 17]: 0
- Plant response rating, Sedge, Umbrella [10, 19]: 45
- Corn plant response rating [11, 13]: 10
- Corn plant response rating [11, 14]: 30
- Plant response rating, Corn [11, 15]: 0
- Plant response rating, Corn [11, 16]: 0
- Pigweed plant response rating [12, 13]: 100
- Pigweed plant response rating [12, 14]: 100
- Plant response rating, Pigweed [12, 15]: 40
- Plant response rating, Pigweed [12, 16]: 90

Reference: patent US9302999B2, “Substituted triazoles as herbicides” (E. I. DU PONT DE NEMOURS AND COMPANY, priority 2012, dated 2016)
